Patent publication US7407954B2, “Thieno-(1,3)-oxazin-4-ones with lipase inhibiting activity” (Alizyme Therapeutics Limited, priority 2001, dated 2008)

Tests used:
[1] = molecular target: T1, porcine pancreatic lipase (Sus scrofa, UniProt P00591); assay: Lipase enzyme activity, NaOH titration method (lipid micelles); type: biochemical; settings: NaOH titration assay
T1 sequence (P00591 1-450): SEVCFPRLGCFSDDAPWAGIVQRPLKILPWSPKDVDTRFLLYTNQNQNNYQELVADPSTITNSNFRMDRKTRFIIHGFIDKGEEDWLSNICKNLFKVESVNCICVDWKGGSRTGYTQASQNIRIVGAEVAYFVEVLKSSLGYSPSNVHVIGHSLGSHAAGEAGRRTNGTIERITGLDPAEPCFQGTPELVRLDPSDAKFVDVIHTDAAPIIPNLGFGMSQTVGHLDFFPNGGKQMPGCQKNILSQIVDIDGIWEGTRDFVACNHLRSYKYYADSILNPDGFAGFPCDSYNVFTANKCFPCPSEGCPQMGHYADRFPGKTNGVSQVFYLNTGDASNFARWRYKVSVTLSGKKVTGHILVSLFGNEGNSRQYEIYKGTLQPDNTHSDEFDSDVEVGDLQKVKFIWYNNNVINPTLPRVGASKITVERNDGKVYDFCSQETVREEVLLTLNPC
Description: Measurement of Lipase Enzyme Activity Using a NaOH Titration Method
The inhibitory activity of the selected compound to pancreatic lipase was measured in the assay described in Pasquier et al; 1996, Vol 7, Nutritional Biochemistry, 293-302.
Log dose/response curves were constructed using a range of inhibitor concentrations.
Selected thieno-oxazinone compounds were tested in the NaOH titration assay. In this assay, the activity of porcine pancreatic lipase in a system containing lipid micelles is recorded. These conditions are therefore similar to those encountered in the gastrointestinal tract.

human pancreatic lipase = molecular target: T2, human pancreatic lipase (Homo sapiens, UniProt P16233); assay: Lipase activity, quinine diimine dye colorimetric assay (Sigma Lipase-PS); type: biochemical
T2 sequence (P16233 17-465): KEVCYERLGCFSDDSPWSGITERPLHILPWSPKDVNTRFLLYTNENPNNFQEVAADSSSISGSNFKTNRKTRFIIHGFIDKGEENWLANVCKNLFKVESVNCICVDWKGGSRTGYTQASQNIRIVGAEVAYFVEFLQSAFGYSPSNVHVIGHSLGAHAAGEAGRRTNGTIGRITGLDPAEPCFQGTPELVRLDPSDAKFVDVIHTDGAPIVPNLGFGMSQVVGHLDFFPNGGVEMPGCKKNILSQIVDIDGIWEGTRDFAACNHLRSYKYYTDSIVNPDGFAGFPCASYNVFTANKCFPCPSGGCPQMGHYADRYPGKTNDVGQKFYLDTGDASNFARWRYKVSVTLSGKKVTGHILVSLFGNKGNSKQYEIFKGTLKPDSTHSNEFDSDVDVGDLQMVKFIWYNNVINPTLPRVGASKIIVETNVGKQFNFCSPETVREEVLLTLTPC
Description: Measurement of Lipase Activity Using a Quinine Diimine Dye Calorimetric Assay
The inhibitory activity of the selected compounds to pancreatic lipase was measured in the following assay available from Sigma Ltd (Lipase-PS™, catalog number 805-A):
The glycerol released from the action of pancreatic and monoglyceride lipase was oxidised to release H2O2. The peroxidase reaction step then produces a quinine dye which is pink in colour and absorbs light at a wavelength of 550 nm.
Individual test compounds were dissolved in DMSO (dimethyl sulphoxide) at 10 mM. DMSO was used to avoid any problems with compounds being water-insoluble.
For individual compounds, the IC50 (concentration at which lipase activity is inhibited to one half of the maximum) was calculated by measuring the inhibitory activity from log-dose response curves using a range of inhibitor concentrations.
A range of standard compounds were assayed in the quinine dye calorimetric assay which provides a rapid method to measure lipase inhibitory activity.

CCCCCCCCCCCCCCCCNc1nc2sc(C)cc2c(=O)o1 [Compound 45, 2-Hexadecylamino-6-methyl-4H-thieno-[2,3-d][1,3]oxazin-4-one]
IC50 [1]: ≤ 1 µM | IC50 (human pancreatic lipase): < 0.1 µM
